Measurements: the NIST ThermoML archive (doi:10.1016/j.fluid.2013.11.026)

Legend:
[1] = excess molar enthalpy (molar enthalpy of mixing); xn = mol fraction of the nth substance listed; conditions: 101 kPa, Liquid, Calvet calorimetry
[2] = xn = mol fraction of the nth substance listed; conditions: 101 kPa, Liquid, Vibrating tube method
[3] = 101.33 kPa, Liquid, Vibrating tube method
[4] = refractive index (Na D-line) (dimensionless); conditions: 101.33 kPa, Liquid, Standard Abbe refractometry

CCOC=O [ethyl methanoate] + CCCCC
Conditions	excess molar enthalpy [kcal/mol]	mass density [kg/m3]
[1], 291.15 K, x1 = 0.0907	0.109	–
[1], 291.15 K, x1 = 0.1625	0.1671	–
[1], 291.15 K, x1 = 0.2451	0.223	–
[1], 291.15 K, x1 = 0.3245	0.2663	–
[1], 291.15 K, x1 = 0.3983	0.2937	–
[1], 291.15 K, x1 = 0.4484	0.3043	–
[1], 291.15 K, x1 = 0.4961	0.3093	–
[1], 291.15 K, x1 = 0.536	0.3057	–
[1], 291.15 K, x1 = 0.5703	0.3	–
[1], 291.15 K, x1 = 0.605	0.2945	–
[1], 291.15 K, x1 = 0.6447	0.2818	–
[1], 291.15 K, x1 = 0.6893	0.2653	–
[1], 291.15 K, x1 = 0.7332	0.2445	–
[1], 291.15 K, x1 = 0.7743	0.2182	–
[1], 291.15 K, x1 = 0.8244	0.1855	–
[1], 291.15 K, x1 = 0.874	0.1465	–
[1], 291.15 K, x1 = 0.9259	0.0968	–
[1], 291.15 K, x1 = 0.9621	0.0454	–
[1], 298.15 K, x1 = 0.0714	0.106	–
[1], 298.15 K, x1 = 0.1517	0.1922	–
[1], 298.15 K, x1 = 0.2221	0.2512	–
[1], 298.15 K, x1 = 0.3085	0.299	–
[1], 298.15 K, x1 = 0.3849	0.3186	–
[1], 298.15 K, x1 = 0.445	0.3217	–
[1], 298.15 K, x1 = 0.4999	0.3236	–
[1], 298.15 K, x1 = 0.5411	0.32	–
[1], 298.15 K, x1 = 0.5726	0.3143	–
[1], 298.15 K, x1 = 0.6159	0.3069	–
[1], 298.15 K, x1 = 0.6668	0.2935	–
[1], 298.15 K, x1 = 0.7209	0.2717	–
[1], 298.15 K, x1 = 0.7702	0.2428	–
[1], 298.15 K, x1 = 0.8273	0.2065	–
[1], 298.15 K, x1 = 0.8813	0.16	–
[1], 298.15 K, x1 = 0.9227	0.104	–
[1], 298.15 K, x1 = 0.9662	0.049	–
[2], 291.15 K, x1 = 0.054	–	637.14
[2], 291.15 K, x1 = 0.063	–	638.38
[2], 291.15 K, x1 = 0.118	–	649.24
[2], 291.15 K, x1 = 0.161	–	658.03
[2], 291.15 K, x1 = 0.208	–	668.06
[2], 291.15 K, x1 = 0.305	–	689.98
[2], 291.15 K, x1 = 0.35	–	701.21
[2], 291.15 K, x1 = 0.405	–	715.14
[2], 291.15 K, x1 = 0.499	–	741.07
[2], 291.15 K, x1 = 0.595	–	769.91
[2], 291.15 K, x1 = 0.656	–	789.59
[2], 291.15 K, x1 = 0.751	–	822.65
[2], 291.15 K, x1 = 0.794	–	838.31
[2], 291.15 K, x1 = 0.85	–	859.54
[2], 291.15 K, x1 = 0.895	–	877.8
[2], 291.15 K, x1 = 0.941	–	896.94
[2], 291.15 K, x1 = 1	–	923.4
[2], 298.15 K, x1 = 0.058	–	631.15
[2], 298.15 K, x1 = 0.101	–	639.36
[2], 298.15 K, x1 = 0.104	–	639.54
[2], 298.15 K, x1 = 0.196	–	658.7
[2], 298.15 K, x1 = 0.252	–	670.7
[2], 298.15 K, x1 = 0.304	–	682.9
[2], 298.15 K, x1 = 0.405	–	708.3
[2], 298.15 K, x1 = 0.496	–	733.3
[2], 298.15 K, x1 = 0.609	–	766.9
[2], 298.15 K, x1 = 0.702	–	797.1
[2], 298.15 K, x1 = 0.801	–	832.2
[2], 298.15 K, x1 = 0.858	–	854.37
[2], 298.15 K, x1 = 0.909	–	875.28
[2], 298.15 K, x1 = 0.953	–	893.59
[2], 298.15 K, x1 = 1	–	914.35

CCCCC [pentane] + COC=O
Conditions	mass density [kg/m3]
[2], 291.15 K, x2 = 0	627.86

CCCCC [pentane] + CCOC=O
[2], x2 = 0
Conditions	mass density [kg/m3]
291.15 K	627.86
298.15 K	620.89

CCCCC [pentane]
Conditions	mass density, [3] [kg/m3]	refractive index, [4]
291.15 K	627.86	1.3589
298.15 K	620.89	1.3545

CCCCC [pentane] + CCCOC=O
[2], x2 = 0
Conditions	mass density [kg/m3]
291.15 K	627.86
298.15 K	620.89

COC=O [methyl methanoate] + CCCCC
291.15 K
Conditions	excess molar enthalpy [kcal/mol]	mass density [kg/m3]
[1], x1 = 0.1107	0.1511	–
[1], x1 = 0.2113	0.2758	–
[1], x1 = 0.3055	0.3714	–
[1], x1 = 0.3765	0.418	–
[1], x1 = 0.438	0.4412	–
[1], x1 = 0.4783	0.4484	–
[1], x1 = 0.5268	0.4539	–
[1], x1 = 0.5716	0.4503	–
[1], x1 = 0.6028	0.4398	–
[1], x1 = 0.6356	0.4264	–
[1], x1 = 0.6702	0.4089	–
[1], x1 = 0.7191	0.3817	–
[1], x1 = 0.7683	0.3425	–
[1], x1 = 0.8256	0.2882	–
[1], x1 = 0.8773	0.2266	–
[1], x1 = 0.9215	0.158	–
[1], x1 = 0.9587	0.0827	–
[2], x1 = 0.091	–	640.27
[2], x1 = 0.102	–	641.95
[2], x1 = 0.147	–	649.45
[2], x1 = 0.206	–	660.56
[2], x1 = 0.27	–	674.05
[2], x1 = 0.309	–	683.08
[2], x1 = 0.371	–	698.6
[2], x1 = 0.393	–	704.52
[2], x1 = 0.416	–	710.63
[2], x1 = 0.451	–	721.01
[2], x1 = 0.488	–	732.21
[2], x1 = 0.506	–	737.92
[2], x1 = 0.559	–	755.6
[2], x1 = 0.618	–	776.61
[2], x1 = 0.695	–	807.5
[2], x1 = 0.759	–	835.94
[2], x1 = 0.786	–	849.13
[2], x1 = 0.827	–	870.13
[2], x1 = 0.84	–	876.82
[2], x1 = 0.941	–	936.47
[2], x1 = 1	–	977.21

CCCOC=O [propyl methanoate]
Conditions	mass density, [3] [kg/m3]	refractive index, [4]
291.15 K	907.97	1.3778
298.15 K	899.86	1.3752
